From US6303591A, “21-hydroxy-6,19-oxidoprogesterone (21OH-6OP) and its use as medicament for treating excess of glucocorticoids” (Applied Research Systems ARS Holding NV, priority 1997, dated 2001)

Columns and labels:
MR = settings: background; cited from earlier work
GR = settings: background; cited from earlier work
[1] = target: T1, uterus PR (progesterone receptor) (Rattus norvegicus, UniProt Q63449); experiment: (^3 H)-P4 binding to uterus cytosols (PR); settings: uterus cytosol, 12 h at 0° C., 1 μM cortisol
T1 sequence (Q63449 1-923): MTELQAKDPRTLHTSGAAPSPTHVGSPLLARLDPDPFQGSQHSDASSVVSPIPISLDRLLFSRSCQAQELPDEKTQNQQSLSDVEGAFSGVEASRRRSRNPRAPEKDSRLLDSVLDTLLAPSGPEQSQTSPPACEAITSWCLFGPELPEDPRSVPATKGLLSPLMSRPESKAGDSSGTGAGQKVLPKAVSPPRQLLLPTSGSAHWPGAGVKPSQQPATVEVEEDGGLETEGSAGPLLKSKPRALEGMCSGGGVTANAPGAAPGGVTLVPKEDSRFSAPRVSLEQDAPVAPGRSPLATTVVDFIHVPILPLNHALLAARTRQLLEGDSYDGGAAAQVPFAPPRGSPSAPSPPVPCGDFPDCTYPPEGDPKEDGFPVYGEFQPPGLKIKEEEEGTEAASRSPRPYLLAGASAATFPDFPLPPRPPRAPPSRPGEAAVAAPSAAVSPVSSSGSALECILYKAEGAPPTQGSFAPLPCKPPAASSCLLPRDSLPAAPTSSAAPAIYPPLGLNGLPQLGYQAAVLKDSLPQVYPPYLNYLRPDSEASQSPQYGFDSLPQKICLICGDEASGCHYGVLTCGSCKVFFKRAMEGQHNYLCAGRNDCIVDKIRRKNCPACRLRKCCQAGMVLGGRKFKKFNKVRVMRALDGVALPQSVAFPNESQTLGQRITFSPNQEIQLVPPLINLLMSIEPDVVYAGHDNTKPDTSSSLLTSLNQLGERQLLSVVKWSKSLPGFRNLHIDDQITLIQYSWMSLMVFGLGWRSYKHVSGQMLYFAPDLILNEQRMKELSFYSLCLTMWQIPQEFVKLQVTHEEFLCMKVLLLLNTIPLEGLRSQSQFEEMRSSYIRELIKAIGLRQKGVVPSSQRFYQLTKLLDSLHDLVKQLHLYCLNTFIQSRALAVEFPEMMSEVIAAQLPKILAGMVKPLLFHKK
Experimental: Binding Assay: Adrenalectomized male Sprague-Dawley rats were bled to death by heart puncture. Cold 0.9% NaCI was injected profusely through the aorta until organs were completely blanched. Thymuses were used as a source of GR and kidneys as a source of MR. Homogenization and incubation conditions were performed as previously described, (14) and (15), respectively. Briefly, homogenates performed in cold TEGM buffer at pH 7.4 (0.1 M Tris-HCl, 10 mM EDTA, 10 mM α-mercaptoethanol, 20 mM Na2 MoO4, 25% glycerol, 0.1 mM PMSF, 2.0 TIU/ml aprotinin and 1 mg% Leupeptin) were centrifuged at 37,000 rev. for 30 min at 0° C. Supernatants from this centrifugation are referred to as "cytosol". […] (^3 H)-P4 binding to uterus PR was assayed on immature female rats according to Jordan et al (16).
Relative binding affinity (RBA) for partially purified CBG was determined by steroid competition for (^3 H)-B binding as described previously (14).

SMILES: CC(=O)[C@H]1CC[C@H]2[C@@H]3CCC4=CC(=O)CC[C@]4(C)[C@H]3CC[C@]12C [P4, progesterone]
- cross-reaction with MR (MR): exhibits cross-reaction with both MR and GR
- cross-reaction with GR (GR): exhibits cross-reaction with both MR and GR
- displacement of (^3 H)-P4 from uterus receptors / cross-reaction with PR [1]: able to displace the tracer efficiently
